Values joined by “and” are separate entries in the source; they are usually repeats but may differ in a detail not shown here. Equal entries are not always repeated. ± gives the expanded uncertainty stated by the source. Each block holds one compound with its values, some of them ahead of it.
What was measured:
[1] = molar enthalpy of vaporization or sublimation; details: 298.15 K, DSC
[2] = mn = molality of the nth substance listed, in mol/kg; details: 298.15 K, 101 kPa, Liquid, Vibrating tube method
[3] = refractive index (Na D-line) (dimensionless); mn = molality of the nth substance listed, in mol/kg; details: 298.15 K, 101 kPa, Liquid, Standard Abbe refractometry
[4] = Liquid, Transpiration method

- molar enthalpy ([1]; Crystal): 51 ± 1.31 kcal/mol
SMILES: c1ccc(-c2c3ccccc3c(-c3ccccc3)c3c(-c4ccccc4)c4ccccc4c(-c4ccccc4)c23)cc1 [5,6,11,12-tetraphenylnaphthacene]

- vapor or sublimation pressure ([4]; 318.5 K): 0.00026 ± 2e-05 kPa
- vapor or sublimation pressure ([4]; 323.5 K): 0.00038 ± 2e-05 kPa
- vapor or sublimation pressure ([4]; 328.3 K): 0.00062 ± 3e-05 kPa
- vapor or sublimation pressure ([4]; 328.4 K): 0.0006 ± 3e-05 kPa
- vapor or sublimation pressure ([4]; 333.4 K): 0.00092 ± 5e-05 kPa
- vapor or sublimation pressure ([4]; 338 K): 0.00136 ± 7e-05 kPa
- vapor or sublimation pressure ([4]; 351 K): 0.00376 ± 0.0002 kPa
- vapor or sublimation pressure ([4]; 353.1 K): 0.00462 ± 0.00024 kPa
- vapor or sublimation pressure ([4]; 358.3 K): 0.00644 ± 0.00034 kPa
- vapor or sublimation pressure ([4]; 358.5 K): 0.00687 ± 0.00036 kPa
- vapor or sublimation pressure ([4]; 363 K): 0.00953 ± 0.0005 kPa
- vapor or sublimation pressure ([4]; 368.3 K): 0.01352 ± 0.0007 kPa
- vapor or sublimation pressure ([4]; 371 K): 0.01665 ± 0.00087 kPa
- molar enthalpy ([1]; Liquid): 19.8 ± 0.621 kcal/mol
SMILES: c1ccc(-c2cccc3ccccc23)cc1 [1-phenylnaphthalene]
- vapor or sublimation pressure ([4]; 343.6 K): 0.00209 ± 0.00011 kPa and 0.0021 ± 0.00011 kPa

- molar enthalpy ([1]; Crystal): 35.4 ± 1.12 kcal/mol
SMILES: c1ccc2c(c1)ccc1cc3c(ccc4ccccc43)cc12 [dibenz[a,h]anthracene]

- molar enthalpy ([1]; Crystal): 24.6 ± 0.669 kcal/mol
SMILES: C(=C\c1ccccc1)/c1ccccc1 [(E)-1,2-diphenylethene]

- molar enthalpy ([1]; Crystal): 22 ± 1.08 kcal/mol
SMILES: C(#Cc1ccccc1)c1ccccc1 [1,2-diphenylethyne]

- molar enthalpy ([1]; Crystal): 27.8 ± 0.741 kcal/mol
SMILES: c1ccc2cc3c(ccc4ccccc43)cc2c1 [benz[a]anthracene]

- mass density ([2]; m1 = 8e-05): 873.38 ± 1.3 kg/m3
- mass density ([2]; m1 = 0.00011): 873.424 ± 1.2 kg/m3
- mass density ([2]; m1 = 0.00022): 873.551 ± 1.3 kg/m3
- refractive index ([3]; m1 = 0.0008): 1.49737 ± 0.00031
- refractive index ([3]; m1 = 0.0011): 1.4974 ± 0.00031
- refractive index ([3]; m1 = 0.0017): 1.49744 ± 0.00031 and 1.49745 ± 0.00031
- refractive index ([3]; m1 = 0.0022): 1.49748 ± 0.00031
SMILES: c1ccc(-c2c(-c3ccccc3)c(-c3ccccc3)c3ccccc3c2-c2ccccc2)cc1 [1,2,3,4-tetraphenylnaphthalene] + c1ccccc1
- mass density ([2]; m1 = 0.00017): 873.488 ± 1.2 kg/m3 and 873.494 ± 1.2 kg/m3

- molar enthalpy ([1]; Crystal): 39.4 ± 1.48 kcal/mol
SMILES: c1ccc(-c2c(-c3ccccc3)c(-c3ccccc3)c3ccccc3c2-c2ccccc2)cc1 [1,2,3,4-tetraphenylnaphthalene]

- molar enthalpy ([1]; Crystal): 46.8 ± 1.41 kcal/mol
SMILES: c1ccc(-c2c(-c3ccccc3)c(-c3ccccc3)c(-c3ccccc3)c(-c3ccccc3)c2-c2ccccc2)cc1 [hexaphenylbenzene]

- mass density ([2]; m1 = 0.00038): 873.87 ± 0.78 kg/m3
- mass density ([2]; m1 = 0.00061): 874.054 ± 0.83 kg/m3
- mass density ([2]; m1 = 0.0007): 874.135 ± 0.78 kg/m3
- mass density ([2]; m1 = 0.0008): 874.201 ± 0.67 kg/m3
- refractive index ([3]; m1 = 0.00038): 1.49797 ± 0.00031
- refractive index ([3]; m1 = 0.00061): 1.49809 ± 0.00031
- refractive index ([3]; m1 = 0.0007): 1.49814 ± 0.00031
- refractive index ([3]; m1 = 0.0008): 1.49819 ± 0.00031
SMILES: c1ccc(-c2cccc(-c3ccccc3)c2-c2ccccc2)cc1 [1,2,3-triphenylbenzene] + c1ccccc1

- molar enthalpy ([1]; Crystal): 33.1 ± 1 kcal/mol
SMILES: c1ccc(-c2cccc(-c3ccccc3)c2-c2ccccc2)cc1 [1,2,3-triphenylbenzene]

- mass density ([2]; m1 = 0.00019): 873.334 ± 0.34 kg/m3
- mass density ([2]; m1 = 0.00036): 873.403 ± 0.45 kg/m3
- mass density ([2]; m1 = 0.00042): 873.437 ± 0.58 kg/m3
- mass density ([2]; m1 = 0.00079): 873.534 ± 0.28 kg/m3
- refractive index ([3]; m1 = 0.00019): 1.49738 ± 0.00031
- refractive index ([3]; m1 = 0.00036): 1.49743 ± 0.00031
- refractive index ([3]; m1 = 0.00042): 1.49747 ± 0.00031
- refractive index ([3]; m1 = 0.00079): 1.49756 ± 0.00031
SMILES: C(#Cc1ccccc1)c1ccccc1 [1,2-diphenylethyne] + c1ccccc1

- molar enthalpy ([1]; Crystal): 36.5 ± 1.27 kcal/mol
SMILES: c1ccc(-c2c3ccccc3c(-c3ccccc3)c3ccccc23)cc1 [9,10-diphenylanthracene]

- mass density ([2]; m1 = 0.00012): 873.64 ± 0.84 kg/m3
- mass density ([2]; m1 = 0.00016): 873.666 ± 0.93 kg/m3
- mass density ([2]; m1 = 0.00022): 873.731 ± 1.1 kg/m3
- mass density ([2]; m1 = 0.00028): 873.796 ± 1.1 kg/m3
- mass density ([2]; m1 = 0.0003): 873.822 ± 1.3 kg/m3
- refractive index ([3]; m1 = 0.00012): 1.49761 ± 0.00031
- refractive index ([3]; m1 = 0.00016): 1.49763 ± 0.00031
- refractive index ([3]; m1 = 0.00022): 1.49768 ± 0.00031
- refractive index ([3]; m1 = 0.00028): 1.49773 ± 0.00031
- refractive index ([3]; m1 = 0.0003): 1.49776 ± 0.00031
SMILES: c1ccc(-c2c3ccccc3c(-c3ccccc3)c3ccccc23)cc1 [9,10-diphenylanthracene] + c1ccccc1

Further lines, the compound ahead of its results:

SMILES: c1ccccc1 [benzene] + c1ccc(-c2c3ccccc3cc3ccccc23)cc1
- mass density ([2]; m2 = 0): 873.612 ± 0.69 kg/m3
- refractive index ([3]; m2 = 0): 1.49758 ± 0.00031

SMILES: c1ccccc1 [benzene] + C(#Cc1ccccc1)c1ccccc1
- mass density ([2]; m2 = 0): 873.285 ± 0.28 kg/m3
- refractive index ([3]; m2 = 0): 1.49734 ± 0.00031

SMILES: c1ccc(-c2c3ccccc3cc3ccccc23)cc1 [9-phenylanthracene]
- molar enthalpy ([1]; Crystal): 30 ± 0.765 kcal/mol

SMILES: c1ccc(-c2ccc(-c3ccccc3)cc2)cc1 [p-terphenyl]
- molar enthalpy ([1]; Crystal): 29 ± 1 kcal/mol

SMILES: c1ccccc1 [benzene] + c1ccc(-c2c(-c3ccccc3)c(-c3ccccc3)c3ccccc3c2-c2ccccc2)cc1
- mass density ([2]; m2 = 0): 873.277 ± 1.3 kg/m3
- refractive index ([3]; m2 = 0): 1.49731 ± 0.00031

SMILES: c1ccccc1 [benzene] + c1ccc(-c2cccc(-c3ccccc3)c2)cc1
- mass density ([2]; m2 = 0): 873.483 ± 0.54 kg/m3
- refractive index ([3]; m2 = 0): 1.49772 ± 0.00031

SMILES: c1ccccc1 [benzene] + c1ccc(-c2cccc(-c3ccccc3)c2-c2ccccc2)cc1
- mass density ([2]; m2 = 0): 873.584 ± 0.76 kg/m3
- refractive index ([3]; m2 = 0): 1.49778 ± 0.00031

SMILES: c1ccc(-c2cccc(-c3ccccc3)c2)cc1 [m-terphenyl] + c1ccccc1
- mass density ([2]; m1 = 0.00482): 876.044 ± 0.54 kg/m3
- mass density ([2]; m1 = 0.00941): 878.445 ± 0.53 kg/m3
- mass density ([2]; m1 = 0.0142): 880.914 ± 0.52 kg/m3
- mass density ([2]; m1 = 0.0215): 884.612 ± 0.52 kg/m3
- refractive index ([3]; m1 = 0.00482): 1.49966 ± 0.00031
- refractive index ([3]; m1 = 0.00941): 1.50149 ± 0.00031
- refractive index ([3]; m1 = 0.0142): 1.50336 ± 0.00031
- refractive index ([3]; m1 = 0.0215): 1.50621 ± 0.00031

SMILES: c1ccccc1 [benzene] + c1ccc(-c2c3ccccc3c(-c3ccccc3)c3ccccc23)cc1
- mass density ([2]; m2 = 0): 873.534 ± 0.89 kg/m3
- refractive index ([3]; m2 = 0): 1.49752 ± 0.00031

SMILES: c1ccc(-c2c3ccccc3cc3ccccc23)cc1 [9-phenylanthracene] + c1ccccc1
- mass density ([2]; m1 = 0.00011): 873.687 ± 0.71 kg/m3
- mass density ([2]; m1 = 0.00032): 873.837 ± 0.75 kg/m3
- mass density ([2]; m1 = 0.00038): 873.891 ± 0.91 kg/m3
- mass density ([2]; m1 = 0.0008): 874.047 ± 0.39 kg/m3
- refractive index ([3]; m1 = 0.00011): 1.49764 ± 0.00031
- refractive index ([3]; m1 = 0.00032): 1.49776 ± 0.00031
- refractive index ([3]; m1 = 0.00038): 1.4978 ± 0.00031
- refractive index ([3]; m1 = 0.0008): 1.49794 ± 0.00031

SMILES: c1ccc(-c2cccc(-c3ccccc3)c2)cc1 [m-terphenyl]
- molar enthalpy ([1]; Crystal): 27.6 ± 0.621 kcal/mol

SMILES: c1cc2ccc3cccc4ccc(c1)c2c34 [pyrene]
- molar enthalpy ([1]; Crystal): 25.2 ± 0.789 kcal/mol

SMILES: c1ccc2c(c1)-c1cccc3cccc-2c13 [fluoranthene]
- molar enthalpy ([1]; Crystal): 24.1 ± 0.669 kcal/mol

From the NIST ThermoML archive (doi:10.1016/j.tca.2014.05.033)
